# Target: Vascular endothelial growth factor receptor 2 (Homo sapiens, UniProt P35968)
# Assay: Inhibition of human VEGFR2 after 60 mins
# Sequence of Vascular endothelial growth factor receptor 2 (P35968 whole entry): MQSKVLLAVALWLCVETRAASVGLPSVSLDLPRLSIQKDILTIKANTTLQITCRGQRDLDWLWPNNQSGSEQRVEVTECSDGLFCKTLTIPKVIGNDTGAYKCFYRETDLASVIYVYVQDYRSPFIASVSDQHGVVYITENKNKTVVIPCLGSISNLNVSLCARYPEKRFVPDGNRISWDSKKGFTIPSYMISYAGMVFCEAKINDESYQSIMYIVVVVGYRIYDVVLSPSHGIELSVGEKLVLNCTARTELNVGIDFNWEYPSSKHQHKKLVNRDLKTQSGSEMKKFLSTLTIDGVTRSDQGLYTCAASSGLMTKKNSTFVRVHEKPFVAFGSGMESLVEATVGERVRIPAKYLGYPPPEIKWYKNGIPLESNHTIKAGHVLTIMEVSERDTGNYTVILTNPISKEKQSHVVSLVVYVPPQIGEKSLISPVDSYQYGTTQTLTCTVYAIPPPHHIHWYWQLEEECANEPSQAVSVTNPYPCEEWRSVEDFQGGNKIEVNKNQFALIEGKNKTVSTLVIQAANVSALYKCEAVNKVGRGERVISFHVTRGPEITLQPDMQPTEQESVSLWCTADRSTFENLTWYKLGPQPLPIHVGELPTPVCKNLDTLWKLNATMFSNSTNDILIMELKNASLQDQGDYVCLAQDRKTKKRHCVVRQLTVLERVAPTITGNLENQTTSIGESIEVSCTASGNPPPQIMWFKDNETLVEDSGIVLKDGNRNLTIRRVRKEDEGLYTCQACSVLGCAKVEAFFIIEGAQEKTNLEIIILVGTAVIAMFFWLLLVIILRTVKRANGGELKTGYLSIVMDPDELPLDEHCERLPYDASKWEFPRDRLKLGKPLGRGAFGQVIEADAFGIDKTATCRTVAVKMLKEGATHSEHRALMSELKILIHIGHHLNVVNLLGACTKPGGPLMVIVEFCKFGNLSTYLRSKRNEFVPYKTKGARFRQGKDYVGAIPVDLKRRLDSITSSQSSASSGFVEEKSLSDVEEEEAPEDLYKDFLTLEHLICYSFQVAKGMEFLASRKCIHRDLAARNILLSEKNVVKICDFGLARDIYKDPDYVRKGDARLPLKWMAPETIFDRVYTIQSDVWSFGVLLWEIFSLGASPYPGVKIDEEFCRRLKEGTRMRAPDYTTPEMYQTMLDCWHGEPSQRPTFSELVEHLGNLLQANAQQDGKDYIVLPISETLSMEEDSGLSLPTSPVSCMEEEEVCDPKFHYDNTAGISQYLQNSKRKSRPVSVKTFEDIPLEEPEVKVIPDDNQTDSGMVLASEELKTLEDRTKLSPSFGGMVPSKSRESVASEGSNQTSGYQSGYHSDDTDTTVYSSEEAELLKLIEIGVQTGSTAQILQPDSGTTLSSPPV
row,SMILES,IC50
1,COCCNC(=O)c1cccc2cc(Oc3ccnc4cc(OC)c(C(C)=O)cc34)ccc12,21.9 nM
2,COc1cc2nccc(Oc3ccc4c(C(=O)NCC(F)F)cccc4c3)c2cc1OC,3.8 nM
3,COc1cc2nccc(Oc3ccc4c(C(=O)NC5CCC5)cccc4c3)c2cc1OC,2.14 nM
4,COc1cc2nccc(Oc3ccc4c(C(=O)NC(C)C)cccc4c3)c2cc1OC,5.5 nM
5,COc1cc2nccc(Oc3ccc4c(C(=O)NC5CCCC5)cccc4c3)c2cc1OC,12 nM

# These reach a lower IC50. Values come first.
row,IC50,SMILES
1,1.2 nM,COc1cc2nccc(Oc3ccc4c(C(N)=O)cccc4c3)c2cc1C(C)=O
2,0.603 nM,COc1cc2nccc(Oc3ccc4c(c3)OCCN4C(=O)Nc3ccc(Cl)cc3)c2cc1C(C)=O
3,0.501 nM,COc1cc2nccc(Oc3ccc4c(c3)OCCN4C(=O)Nc3ccc(C)cc3)c2cc1C(C)=O
4,0.372 nM,COc1cc2nccc(Oc3ccc4c(C(=O)NC5CC5)cccc4c3)c2cc1C(C)=O
5,0.2 nM,COc1cc2nccc(Oc3ccc4c(C(=O)Nc5ccc(Cl)cc5)cccc4c3)c2cc1C(C)=O

# Reference: ChEMBL document CHEMBL1240342, “Molecular modeling studies of vascular endothelial growth factor receptor tyrosine kinase inhibitors using QSAR and docking” (J Mol Graph Model, 2009)
